Results reported in patent US11806343B2, “Inhibitors of DUX4 induction for regulation of muscle function” (Sonic Master Limited, priority 2017, dated 2023).
pIC50: −log10 of the molar value.

Experiments:
[1] = tested on: PRKDC; experiment: RT-PCR of PRKDC mRNA in patient biopsy-derived primary myotubes; format: cell-based, human; conditions: 10 nM-1 μM, 2.5 days, vs vehicle
Method: (§1) Patient biopsy-derived primary myoblasts were seeded to a collagen-I coated plate in primary myoblast medium. Medium was changed every other day until cells reached 80% confluence followed by a switch to primary myotube medium. […] After 2.5 days of myotube formation, the cells were lysed with buffer RLT followed by RNA isolation with RNeasy Plus Mini Kit (Qiagen). 500 ng of RNA was used for cDNA synthesis with SuperScript III first-strand synthesis system for RT-PCR (Invitrogen) and both random hexamers and oligo(dT)20 primers. RT-PCR was performed using TaqMan™ Fast Advanced Master Mix (Applied Biosystems). Reactions were analyzed upon a QuantStudio 3 Real-Time PCR machine using the following cycle conditions: 50° C. for 2 minutes, 95° C. for 2 minutes, followed by 40 cycles at 95° C. for 15 seconds, 60° C. for 1 minute, Results were normalized against GAPDH expression.

[2] = tested on: DUX4; experiment: FSHD hESC-SkM immunocytochemistry, DUX4 expression; format: cell-based, human
Method: FIG. 6 provides an example of a screening and culturing workflow for hESC-SkM assays. At Day 0, hESC-derived myoblasts are thawed into a 96-well plate in myoblast medium (Genea BioCells). On Day 2, the medium is replaced with new myoblast medium containing 1.15 μM. Decitabine. […] On Day 7, the myotubes are analyzed. For example, the myotubes may be analyzed for MHC expression or DUX4 expression.
(§2) Genea049 FSHD-affected human Embryonic Stem Cells (hESCs) were differentiated using Genea's myogenic differentiation protocol (Caron et 2015) to the myoblast stage and cryopreserved. Frozen myoblasts were resuscitated and 4500 cells were plated into each well of a 96-well collagen I coated tissue culture plate in myoblast medium. After two days of cell growth medium was changed to 100 μL per well myoblast medium containing 1.15 μM Decitabine. […] Cells were allowed to differentiate to myotubes for four additional days then were fixed and analyzed for quantification of DUX4 expression, Myosin Heavy Chain expression, and nuclei number. Triplicate wells of each condition were averaged.
as §2, with “et al.,” for “et”, “number by high-content imaging.” for “number.”

[3] = Tissue distribution study, brain and muscle; format: in vivo, CD-1 mice; conditions: mouse; for Uninjected muscle exposure / brain exposure: samples at 1 hour and 24 hours
Method: Intraperitoneal injection, which provides the drug via absorption into the mesenteric blood supply and is thus subject to hepatic first-pass metabolism, was used to approximate oral dosings total of 96 mice were utilized: 3 naive CD-1 male mice and 3 naïve CD-1 female mice were dosed per route of administration per 2 doses plus 3 naive CD-1 male mice and 3 naïve CD-1 female mice were per route of administration per dose for tissue collection. Following administration, blood, brain, and muscle samples were collected as follows; Two blood samples were collected from each mouse at 2 distinct timepoints over 24 bout post-dose to include 0.25, 0.5, 1, 2, 4, 8, and 24 hours. Blood samples were centrifuged to obtain plasma samples. For each time point, duplicate aliquots of plasma were transferred into an appropriately labeled sample tube containing a volume of buffer. The diluted plasma samples were stored at −20° C. for the first 24 hours and then transferred to −80° C. 24 hours of processing. Terminal brain and muscle samples were collected at 1 hour and 24 hours after administration. Tissue samples were temporarily put on dry ice and then stored at −20° C. for the first 24 hours and then transferred to −80° C. 24 hours of collection Plasma, brain and muscle samples were analyzed for test substance quantification using a method based on protein precipitation followed by HPLC-MS/MS analysis within optimized bioanalytical method.
FIG. 31B. […] For IM injected animals, both the injected gastrocnemius muscle and the contralateral (uninjected gastrocnemius)) muscle were collected. […] Concentrations are shown as mean with SD, N=6

[4] = tested on: DUX4; experiment: FSHD primary patient biopsy myotube immunocytochemistry, DUX4 expression; format: cell-based, human
Method: (§3) FIG. 10 provides the workflow for assays performed with patient biopsy-derived muscle. On Day 0, patient myoblasts are passaged in a 96-well dish in primary myoblast medium (Genea BioCells). On Day 2, the medium is changed to […].
(§4) 17MB026 primary FSHD-affected patient myoblasts (obtained from the University of Rochester FSHD Biorepository) were thawed and cultured as described in Rickard et al., 2015 in primary myoblast medium. Cells (6000 per well) were seeded to a collagen-I coated 96-well plate in 100 μl primary myoblast medium. Medium was changed every other day until cells reached 80% confluence followed by a switch to 100 μL per well primary myotube medium. […] Cells were fixed and analyzed after 2.5 days of myotube formation by immunocytochemistry and high-content imaging for DUX4, H3.X/Y, Myosin Heavy Chain expression and nuclei number. Five or six replicate wells were averaged per condition, […]

[5] = tested on: PRKDC; experiment: Immunofluorescence of nuclear phosphorylated PRKDC^2609 in primary myocytes; format: cell-based, human; conditions: 100 nM or 500 nM, 1 hour
Method: (§5) Patient biopsy-derived primary myoblasts were seeded to a collagen-I coated plate in primary myoblast medium. Medium was changed every other day until cells reached 80% confluence followed by a switch to primary myotube medium. […] PRKDC (phosphorylated PRKDC^2609), active SRC (phosphorylated SRC^416), and nuclei.

[6] = tested on: 17MB026 primary FSHD-affected patient myotubes; experiment: FSHD primary patient biopsy myotube immunocytochemistry, Myosin Heavy Chain and nuclei; format: cell-based, human; conditions: 17MB026 primary myotubes, 2 nM-5 μM, 2.5 days
Method: as §3, §4

[7] = tested on: 17MB026 primary FSHD-affected patient myotubes; experiment: Live cell imaging of % cell confluence through myotube formation; format: cell-based, human; conditions: 17MB026 primary myotubes, six concentrations, four days of myotube formation
Method: 17MB026 primary FSHD-affected patient myoblasts (obtained from the University of Rochester FSHD Biorepository) were thawed and cultured as described in Rickard et al., 2015 in primary myoblast medium. Cells (4000 per well) were seeded to a collagen-I coated 96-well plate in 100 μL primary myoblast medium. Medium was changed every other day until cells reached 80% confluence followed by a switch to 100 μL per well primary myotube medium. […] Cells were imaged in the phase contrast channel every six hours for four days and cell confluence in each image was quantified, Triplicate wells of each condition were averaged.

[8] = tested on: SRC; experiment: Immunofluorescence of nuclear phosphorylated SRC^416 in primary myocytes; format: cell-based, human; conditions: 100 nM or 500 nM, 1 hour
Method: as §5

[9] = tested on: SRC; experiment: RT-PCR of SRC mRNA in patient biopsy-derived primary myotubes; format: cell-based, human; conditions: 10 nM-1 μM, 2.5 days, vs vehicle
Method: as §1

## CNC(=O)c1cc(Oc2ccc(NC(=O)Nc3cc(C(C)(C)C)nn3-c3ccc4ncccc4c3)c(F)c2)ccn1 [GBC0905, Rebastinib]
[1]
  expression levels of PRKDC (mRNA): No significant difference
[2]; Genea049 hESC-SkM, 100 nM, four days of culture during myotube formation
  DUX4 expression: decreased DUX4 expression
[2]; Genea049 hESC-SkM, six concentration points 10 nM-3 μM, four days
  DUX4 expression, dose curve: dose-dependent decreased DUX4 expression
[2]; Homo sapiens, Genea049 hESC-SkM dose curve, read-out: estimated IC50 value, DUX4-suppressive effect
  pIC50: ~7.00
[3]; 24 hours after IM injection at 10 mg/kg
  Brain concentration: below the Lower Limit of Quantification (LLOQ)
[3]; intramuscular administration
  Uninjected muscle exposure: ≤ 157 ng/g
  brain exposure: ≤ 351 ng/g
[3]; intramuscular dosing, after 24 hours
  Exposure of the injected muscle (gastrocnemius): 1441667 ng/g
[3]; intraperitoneal administration
  Uninjected muscle exposure: up to 1336 ng/g
  brain exposure: up to 441 ng/g
[4]; 17MB026 primary myotubes, 10-point dose curve 2 nM-5 μM, 2.5 days
  DUX4 expression, dose curve: dose-dependent decrease of DUX4 expression
[4]; Homo sapiens, Myotube, 17MB026 primary FSHD patient myotubes, read-out: IC50 value, DUX4-suppressive effect
  pIC50: ~7.00
[5]
  intensity distribution of nuclear phosphorylated PRKDC^2609 (kinase activity): significant shift towards lower intensity levels
[6]
  Myosin Heavy Chain and nuclei count: without reducing Myosin Heavy Chain or nuclei count
[7]
  FSHD cell death measured by retained % cell confluence: dose-dependent rescue of FSHD cell death
[8]
  intensity distribution of nuclear phosphorylated SRC^416 (kinase activity): significant shift towards lower intensity levels
[9]
  expression levels of SRC (mRNA): No significant difference
